Assay results from patent US6573258B2, “Photodynamic porphyrin antimicrobial agents” (Frontier Scientific, Inc., priority 2000, dated 2003).

Experiments:
E. coli cells [1] = experiment: Growth inhibition after 5 min incubation with porphyrin and white-light irradiation; assay type: cell-based, Escherichia coli; settings: for concentration photoinducing significant bacteriostatic and bactericidal action: both cell strains (S. aureus and E. coli)
Experimental: (§1) The abilities of various examples of the porphyrins of the instant invention to kill Gram-negative and Gram-positive bacteria were tested against that of T4MPyP. Each of the compounds was incubated with E. coli and S. aureus cells for 5 minutes, following which the samples were irradiated with white light for varying lengths of time.
(§2) Escherichia coli strain O4 (wild type), and methycillin-resistant Staphylococcus aureus, strain MRSA 110, were grown aerobically at 37° C. in brain heart infusion broth (BHI, Difco, Detroit, Mich.). The cells in the stationary phase of growth were harvested by centrifugation (2,000 g for 15 min) of the broth cultures, washed twice with 10 mM PBS at pH=7.4, containing 2.7 mM KCl and 0.14 M NaCl, and suspended in PBS at a density of 10^8-10^9 cells/ml (absorbance of about 0.7 at 650 nm). Aliquots of 5 ml of the cell suspension were incubated with 1 μM porphyrins for 5 min in the dark at room temperature. After incubation the suspensions were centrifuged and the cell pellets were collected immediately or washed with PBS and centrifuged again for one or three times.
(§3) The toxic effects of T4MPyP and its analogues on E. coli and S. aureus cells were evaluated by measuring the extent of growth inhibition (bacteriostatic effect) and reduction of survival (cytocidal/bacteriocidal effect) following treatment with porphyrin in the dark or upon light exposure.
(§4) In all cases, 5 ml of the cell suspension (10^8-10^9 cells/ml) were incubated for 5 min in the dark at room temperature with the selected photosensitizer at concentrations ranging between 0.5 and 10 μM. After dark-incubation, some of the cell samples were irradiated with white light (150 mW/cm^2). During irradiation, (up to 30 min) the cells were kept at 37° C. and magnetically stirred. The treated and untreated control cells were diluted with BHI and maintained at 37° C. while the absorbance of the suspension at 650 nm was monitored at predetermined time periods for determining growth curves. The percent of growth inhibition in the treated cells was calculated by the following equation: […]
(§5) where AX, and AC are the absorbances measured after 3 h incubation, respectively, for the treated and control cell suspensions, respectively, while A0 represents the initial absorbance and the AC is that of the control cell suspension after 5 hours incubation. Cell survival was determined by plating serially diluted aliquots of treated and untreated cells on brain heart agar and counting the number of colonies after 18-24 h incubation at 37° C.

S. aureus cells [2] = experiment: as above; assay type: cell-based, Staphylococcus aureus
Experimental: as §1, §2, §3
[…] After dark-incubation, some of the cell samples were irradiated with white light (150 mW/cm^2). During irradiation, (up to 30 min) the cells were kept at 37° C. and magnetically stirred. The treated and untreated control cells were diluted with BHI and maintained at 37° C. while the absorbance of the suspension at 650 nm was monitored at predetermined time periods for determining growth curves. The percent of growth inhibition in the treated cells was calculated by the following equation:
as §5

E. coli cells [3] = experiment: Decrease of cell survival (colony counting) after white-light irradiation; assay type: cell-based, Escherichia coli; settings: for DECREASE OF SURVIVAL (log): 5 min dark incubation, 15 min white light (150 mW/cm^2)
Experimental: as §2, §3, §4, §5

[4] = Fluorescence quantum yields; assay type: physicochemical; settings: for ΦF (PBS), fluorescence quantum yield: in PBS; for ΦF (SDS), fluorescence quantum yield: in aqueous 2% SDS
Experimental: Ground-state absorption spectra of the porphyrins (ca. 5 μM in phosphate buffered saline (PBS, pH=7.4) were recorded with a Lambda 5 Perkin-Elmer spectrophotometer. Fluorescence spectra, corrected for the instrumental response, were recorded with a Perkin-Elmer (model LS) or a Spex (Fluorolog F112) spectrofluorimeter. Fluorescence quantum yields ((IF) of the porphyrin derivatives in PBS and in water containing 2% sodium dodecylsulfate (a detergent, hereinafter “SDS”) were determined by measuring the area of the emission spectrum (600-800 nm range, excitation at 560 nm) and using tetra-n-propylporphycene in toluene as a reference (ΦF=0.38). Braslavsky et al, J. Photochem. Photobiol. B: Biol., 40:191-198 (1997). In all cases, the absorbance of the sample and the reference solution were kept below 0.1 at the excitation wavelength to minimize inner filter effects.

[5] = Fluorescence decay times (phase-shift method); assay type: physicochemical; settings: ca. 5 μM, air-equilibrated buffer pH 7.4, λexc = 420 nm, λem > 600 nm; for A1, relative weight of fast component: dihydrochloride salt
Experimental: Fluorescence decay times of the porphyrin samples were measured by means of a Spex Fluorolog-τ2 spectrofluorimeter based on the phase-shift method. The frequency response curves (phase-shift and demodulation ratio vs. frequency) were globally analyzed.

[6] = Triplet state properties by laser flash photolysis; assay type: physicochemical; settings: phosphate-buffered solution; for φT, triplet quantum yield: ε920 estimated by total depletion method
Experimental: Laser flash photolysis experiments were carried out by use of the setup previously described in Gomer, et al., with excitation wavelengths of 355 and 420 nm. Gorner, et al., Photoinduced electron transfer between styrylanthracenes and electron donors and acceptors in acetonitrile, J. Chem. Soc. Faraday Trans., vol. 88, pp. 29-34 (1992).
The transient spectra of the porphyrins in buffer solutions were recorded upon laser flash photolysis excitation at 355 and 420 nm. […] The decay (growth) of the signal (bleaching) occurred according to first-order kinetics and led to a complete recovery of the ground state with a lifetime of 91 μs. […] This also allowed the triplet quantum yield (φT) to be determined (see Table 3), after calibration of the experimental setup by use of an optically-matched solution of benzophenone in acetonitrile.

[7] = Photosensitized photooxidation of NATA; settings: 10 μM NATA; for ΦSDS × 10^3, quantum yield for photo-oxidation of NATA: aqueous 2% SDS; for ΦPBS × 10^3, quantum yield for photo-oxidation of NATA: phosphate buffered solution
Experimental: The photosensitizing activity of the various porphyrins was tested by measuring their efficiency in promoting the photooxidation of N-acetyl-L-tryptophanamide (NATA, Aldrich Chem. Co.) as a model biological substrate. Toward this aim, 10 μM NATA in PBS or in water containing 2% SDS was irradiated in the presence of 5 μM porphyrin. The irradiations were performed with 515±10 nm-light isolated by means of an interference filter (Balzers, Liechtenstein), while the solution (2 ml) was magnetically stirred in a quartz cuvette of 1-cm optical path and kept at 25° C. The photosensitized modification of NATA was followed by measuring the decrease in the intensity of its fluorescence emission spectrum (300-450 nm) upon excitation with 290 nm-light at various irradiation times. Plots of in F°/F (where F° and F represent the fluorescence intensity at time 0 and t, respectively) vs. the irradiation time allowed the first-order rate constants of the photo-process to be derived.
The intensity of the incident light was measured by using Aberchrome 999P in toluene as an actinometer. Heller, EPA Newslett., 29:49-60 (1987). This parameter was used to calculate the quantum yields of NATA photooxidation sensitized by the different porphyrins.

S. aureus cells [8] = experiment: Binding of porphyrins to bacteria cells; assay type: cell-based, Staphylococcus aureus; settings: 1 μM, 5 min
Experimental: as §2
The amount of cell-bound porphyrins was determined in the pellets after resuspension and overnight-incubation in 2% aqueous SDS. The porphyrin concentration in the cell lysate was determined by measuring the intensity of red fluorescence (600-750 nm) emitted after excitation at 420 nm and interpolating the data on a calibration plot obtained with known porphyrin concentrations. The protein content of the cell samples was determined by the method of Lowry (Lowry et al., J. Biol. Chem., 193:265-275 (1951)) and was used to express the amount of porphyrin bound to the cells as nanomoles of porphyrin/mg of protein.

S. aureus cells [9] = experiment: Dark toxicity of porphyrins on bacteria cells; assay type: cell-based, Staphylococcus aureus; settings: 10 μM, 5 min incubation in the dark
Experimental: as §3, §4, §5

E. coli cells [10] = experiment: Dark toxicity of porphyrins on bacteria cells; assay type: cell-based, Escherichia coli; settings: 10 μM, 5 min incubation in the dark
Experimental: as §3, §4, §5

[11] = 0.5 μM, incubated 5 min, white light 5 min
[12] = 0.5 μM, incubated 5 min, white light 10 min
[13] = Table 5: 0.5 μM, 5 min incubation, 5 min white light (150 mW/cm^2)

Row | Molecule | Growth inhibition (%) E. coli (E. coli cells [1]; [11]) [%] | Growth inhibition (%) E. coli (E. coli cells [1]; [13]) [%] | concentration photoinducing significant bacteriostatic and bactericidal action (E. coli cells [1]) | Growth inhibition (%) S. aureus (S. aureus cells [2]; [13]) [%] | DECREASE OF SURVIVAL (log) (E. coli cells [3]; 1 μM porphyrin) | ΦF (PBS), fluorescence quantum yield [4] | ΦF (SDS), fluorescence quantum yield [4] | A2, relative weight of slow component [5] [%] | τ1, fluorescence decay time of fast component [5] [ns] | τ2, fluorescence decay time of slow component [5] [ns] | A1, relative weight of fast component [5] [%] | λmax of transient spectrum [6] [nm] | λmin of transient spectrum [6] [nm] | φ×ε920 [6] [M⁻¹ cm⁻¹] | τ^N2, triplet lifetime [6] [μs] | τ^air, triplet lifetime [6] [μs] | φT, triplet quantum yield [6] | ΦSDS × 10^3, quantum yield for photo-oxidation of NATA [7] | ΦPBS × 10^3, quantum yield for photo-oxidation of NATA [7] | association with S. aureus compared with E. coli (S. aureus cells [8]) | further results
1 | CCCCCCCCCC[n+]1ccc(-c2c3nc(c(-c4cc[n+](C)cc4)c4ccc([nH]4)c(-c4cc[n+](C)cc4)c4nc(c(-c5cc[n+](C)cc5)c5ccc2[nH]5)C=C4)C=C3)cc1.Cl.Cl.[Cl-].[Cl-].[Cl-].[Cl-] [Porphyrin C10, 5-(4-N-decylpyridyl)-10,15,20-tris(4-N-methylpyridyl)-21H,23H-porphine tetrachloride dihydrochloride salt] | 46.3 | 46 | ten-fold lower concentration | 74 | −4.32 ± 0.34 log | 0.015 | 0.026 | 94 | 1.1 | 5.2 | 6 | 490 | 420 | 10214 | 67 | 20 | 0.49 | 0.64 ± 0.26 | 0.59 ± 0.05 | almost two-fold larger | Growth inhibition (%) E. coli (E. coli cells [1]; [12]): 92%; Growth inhibition (%) E. coli (E. coli cells [1]; 1 μM, incubated 5 min, white light 5 min): 96.1%; Growth inhibition (%) E. coli (E. coli cells [1]; 1 μM, incubated 5 min, white light 10 min): 100%; Growth inhibition (%) S. aureus (S. aureus cells [2]; [11]): 73.9%; Growth inhibition (%) S. aureus (S. aureus cells [2]; [12]): 87.9%; drop in survival of E. coli cells (E. coli cells [3]; 1 μM porphyrin, 15 min irradiation): 4 log
2 | 5-(4-N-hexylpyridyl)-10,15,20-tris(4-N-methylpyridyl)-21H,23H-porphine tetrachloride dihydrochloride salt [Porphyrin C6] | 4.8 | 5 | 10 µM | 47 | +0.05 log | 0.018 | 0.029 | 94 | 0.9 | 5.1 | 6 | 480 | 425 | 6217 | 71 | 16 | 0.48 | 0.68 ± 0.14 | 0.59 ± 0.05 | almost two-fold larger | Growth inhibition (%) E. coli (E. coli cells [1]; 0.5 μM, incubated 5 min, white light 30 min): 15.5%; Growth inhibition (%) E. coli (E. coli cells [1]; 10 μM, incubated 5 min, white light 5 min): 98.7%; Growth inhibition (%) E. coli (E. coli cells [1]; 10 μM, incubated 5 min, white light 10 min): 100%; Growth inhibition (%) E. coli (E. coli cells [1]; Table 5: 10 μM, 5 min incubation, 5 min white light (150 mW/cm^2)): 99%; DECREASE OF SURVIVAL (log) (E. coli cells [3]; 10 μM porphyrin): −4.23 ± 0.54 log; inhibition of bacterial cell growth in the dark (S. aureus cells [9]): barely detectable inhibition; inhibition of bacterial cell growth in the dark (E. coli cells [10]): barely detectable inhibition
